In brackets after ≈: the same amount, converted by molar mass. Blank lines part the entries; values can stand above or below the compound they belong to.
What was measured:
[1] = Dissolution in solvents (salt Protocol 1); type: physicochemical; details: DCM, up to 20 relative volumes, agitated at 50° C.; not in the other nine solvents
From the text: The solvent is selected from isopropanol, ethanol, methanol, isopropyl acetate, THF, TBME, acetone, methyl ethyl ketone, DCM, and MeCN.

[2] = Solubility study in different solvents (UV-spectrometry); type: physicochemical; details: at least 24 h
Procedure: The supersaturated solution is then filtered and the concentration of product in the filtrate is determined using UV-spectrometry.
In water, the influence of the pH is adjusted to pH 2, pH 7, and pH 9. HCl and NaOH are used to adjust the pH.

[3] = Dog bioavailability study; type: in vivo, beagle dogs; details: for Cmax / Tmax / Exposure AUC: target dose 10 mg/kg
Procedure: The dogs are not fasted before dosing, and have free access to water. Every day of the treatment, a half food ration is provided after the T0 blood sampling, 8 to 17 min before treatment, and the second half ration is given just after dosing or 1 h after treatment for period 2. A 3 days washout period is ensured between treatments.
The capsule composition is described in Table XX below.
The capsules are administered orally with water (5-10 mL), to provide good oesophageal transit. Each animal is checked at least once daily.
Blood is collected from the jugular vein into lithium heparinised tubes at TO (before food administration) and then at 1 h, 2 h, 4 h, 6 h, 8 h, 10 h, and 24 h post treatment.
Plasma is then obtained from blood by centrifugation (2500 g for 10 min at 4° C.), and stored at −20° C. until analysis.
After vortex mixing and centrifugation at 4° C., the supernatants are diluted with a 0.5 volume of HPLC grade water in a midi-eppendorf 96-well plate. The plate is sealed and shaken to ensure sample homogeneity prior to analysis.
Pharmacokinetic analysis is performed using WinNonlin™ software version 5.3, using concentrations from individual animals. Non-compartmental analysis is applied to determine the PK parameters (Cmax, Tmax, AUC0-last, t1/2, etc. . . . )
Concentrations below the limit of detection are set to zero for descriptive statistics and PK parameter calculations.

GVS analysis = type: physicochemical
From the text: The evolution of the material is followed via XPRD at various time points.

[4] = Thermodynamic aqueous solubility by HPLC; type: physicochemical; details: salt obtained by Protocol 4
[5] = Complementary salt analysis (XRPD, stability evaluation); type: physicochemical; details: salt obtained by Protocol 4
[6] = single oral administration, 1 × 100 mg capsule
[7] = single oral administration, 4 × 25 mg capsules
[8] = oral capsules, on average at the 2 capsule strengths

- dissolution in solvent [1]: almost full dissolution
- Solubility ([2]; 0.005M HCl, 20° C.): 252 µg/mL (≈ 592 µM)
- Solubility ([2]; HP-β-CD 40% pH3, 20° C.): 550 µg/mL (≈ 1290 µM)
- Cmax [3, 6]: 797 ng/mL
- Tmax [3, 6]: 8.0 h
- Cmax [3, 7]: 894 ng/mL
- Exposure AUC [3, 7]: 10400 ng·h/mL
- Tmax [3, 7]: 6.0 h
Structure (SMILES): O=C(Nc1nc2cccc(-c3ccc(CN4CCS(=O)(=O)CC4)cc3)n2n1)C1CC1 [Compound 1, cyclopropanecarboxylic acid {5-[4-(1,1-dioxo-thiomorpholin-4-ylmethyl)-phenyl]-[1,2,4]triazolo[1,5-a]pyridin-2-yl}-amide]

- Solubility ([2]; 0.005M HCl, 20° C.): 3100 µg/mL
- Solubility ([2]; 0.01M HCl + 2.0% Tween 80, 20° C.): 2790 µg/mL
- Solubility ([2]; 0.01M HCl, 20° C.): 2340 µg/mL
- Solubility ([2]; Acetone, 20° C.): 415 µg/mL
- Solubility ([2]; Acetonitrile, 20° C.): 7360 µg/mL
- Solubility ([2]; Acetonitrile/water (1/1), 20° C.): 25600 µg/mL
- Solubility ([2]; Acetonitrile/water (4/1), 20° C.): 7810 µg/mL
- Solubility ([2]; Dichloromethane, 20° C.): 388 µg/mL
- Solubility ([2]; Ethanol, 20° C.): 764 µg/mL
- Solubility ([2]; HP-β-CD 40% pH2, 20° C.): 7880 µg/mL
- Solubility ([2]; HP-β-CD 40% pH3, 20° C.): 9330 µg/mL
- Solubility ([2]; HP-β-CD 40% pH4, 20° C.): 2790 µg/mL
- Solubility ([2]; Methanol, 20° C.): 743 µg/mL
- Solubility ([2]; PEG400, 20° C.): 36600 µg/mL
- Solubility ([2]; Propanol, 20° C.): 663 µg/mL
- Solubility ([2]; Propylene glycol, 20° C.): 11700 µg/mL
- Solubility ([2]; Tetrahydrofuran, 20° C.): 208 µg/mL
- Solubility ([2]; Water (purified), 20° C.): 3170 µg/mL
- Solubility ([2]; Water pH2, 20° C.): 8050 µg/mL
- Solubility ([2]; Water pH7, 20° C.): 2260 µg/mL
- Solubility ([2]; Water pH9, 20° C.): 2680 µg/mL
- Solubility ([2]; Water/ethanol 1/1, 20° C.): 8680 µg/mL
- Solubility ([2]; t-butyl methyl ether, 20° C.): 26.3 µg/mL
- change in form at elevated RH (GVS analysis; GVS, followed by XRPD): No change in form
- temperature of dehydration to Compound 1·HCl anhydrous (GVS analysis; upon heating): above 60 °C
- in vivo exposure compared with Compound 1 [3, 8]: improved exposure
- rate of absorption compared with Compound 1 [3, 8]: more rapidly absorbed
- Cmax [3, 6]: 2630 ng/mL
- Exposure AUC [3, 6]: 21700 ng·h/mL
- Tmax [3, 6]: 2.0 h
- Cmax [3, 7]: 3050 ng/mL
- Exposure AUC [3, 7]: 33600 ng·h/mL
- Tmax [3, 7]: 2.0 h
- T1/2 ([3]; single oral administration, one range across both forms and both capsule strengths): Range 4.43-8.96 h
Structure (SMILES): Cl.O.O.O.O=C(Nc1nc2cccc(-c3ccc(CN4CCS(=O)(=O)CC4)cc3)n2n1)C1CC1 [Compound 1·HCl·3H2O]

- aqueous solubility [4]: 1900 µg/mL
- hygroscopicity of the salt [5]: non-hygroscopic
- stability of the salt ([5]; stability evaluation 1 week at 40° C./75% Relative humidity): stable
Structure (SMILES): Cl.O=C(Nc1nc2cccc(-c3ccc(CN4CCS(=O)(=O)CC4)cc3)n2n1)C1CC1 [HCl salt]
